Results on six molecules are retold here after US6080790A, “Tri-substituted phenyl derivatives and processes for their preparations” (priority 1992, dated 2000).

The subject of series [1] is PDE IV, HL60 cells. In words: Isolated enzyme, inhibition of PDE IV from HL60 cells. The following applies: 0.1 μM [3H]-cAMP, pH 7.5, 30° C.; "Ki PDEIV HL60 at 1 μM"; read-out: approximate Ki value (PDE IV HL60). In kind it is biochemical. How it is done:
1. Isolated Enzyme The potency and selectivity of the compounds of the invention was determined using a battery of distinct PDE isoenzymes as follows: iv. PDE IV, HL60 cells. The enzymes were purified to kinetic homogeneity using standard chromatographic techniques. Phosphodiesterase activity was assayed as follows. The reaction was conducted in 150 μl of standard mixture containing (final concentrations): 50 mM TES-NaOH buffer (pH 7.5), 10 mM MgCl2, 0.1 μM [^3 H]-cAMP and vehicle or various concentrations of the test compounds. The reaction was initiated by addition of enzyme and conducted at 30° C. for between 5 to 30 mins. […] An aliquot of the sample was then applied to a column of neutral alumina and the […] eluted with 10 ml 0.1 TES-NaOH buffer (pH8). […] Recovery of [3H]-5'AMP was determined using the [^14 C]-5'AMP and all assays were conducted in the linear range of the reaction.

Series [2] relates to right atrial muscle. The settings on record: reference substances, general statement; cited from earlier work.
In series [3] the test system is papillary muscle. The following applies: reference substances, general statement; cited from earlier work.
The conditions of series [4]: used in asthma as a bronchodilator; cited from earlier work.

Counter-ions that a name gives are not always drawn.

By Ki is commonly meant the dissociation constant of the complex between target and ligand, obtained from inhibition or displacement. With `COc1ccc(-c2cccc([N+](=O)[O-])c2)cc1OC1CCCC1` [Example 7, 2-Cyclopentyloxy-4-(3-nitrophenyl)anisole], the Ki in series [1] is ~0.25 µM.
Consider `COc1ccc(C2CNC(=O)C2)cc1OC1CCCC1` (centres unmarked) [rolipram], for which the “direct chronotropic effect (reference PDE inhibitors)” value in series [2] is listed as “do not have any direct effects”. The “direct inotropic effect (reference PDE inhibitors)” value in series [3] is “do not have any direct effects”.
For `COc1ccc(-c2cccnc2)cc1OC1CCCC1` [Example 4, 3-(3-Cyclopentyloxy-4-methoxyphenyl)pyridine hydrochloride], in series [1], the Ki is ~0.27 µM.
`Cc1[nH]c(=O)c(C#N)cc1-c1ccncc1` [milrinone]: the “direct chronotropic effect (reference PDE inhibitors)” value in series [2] is “positive chronotropic and inotropic effects”. The “direct inotropic effect (reference PDE inhibitors)” value in series [3] was “positive chronotropic and inotropic effects”.
For `Cn1c(=O)c2[nH]cnc2n(C)c1=O` [theophylline], in series [4], the cardiovascular changes result is “significant cardiovascular changes such as tachycardia”.
Consider `COc1ccc(-c2cncc3ccccc23)cc1OC1CCCC1` [Example 2, 4-(3-Cyclopentyloxy-4-methoxyphenyl)isoquinoline], for which the Ki in series [1] was ~0.18 µM.
